Experimental data as given in ChEMBL document CHEMBL1143211, “Inhibitors of proteases and amide hydrolases that employ an alpha-ketoheterocycle as a key enabling functionality” (Bioorg Med Chem, 2008).
Each block holds one compound with its values, some of them ahead of it.

Assays:
[1] = Selectivity for human beta-tryptase over kallikrein
[2] = Selectivity for human alpha-thrombin over uPA
[3] = Selectivity for human alpha-thrombin over tissue plasminogen activator
[4] = Inhibition of human beta-tryptase
[5] = Selectivity for human alpha-thrombin over plasmin
[6] = Selectivity for human alpha-thrombin over factor 10a
[7] = Inhibition of Trypanosoma cruzi prolyl endopeptidase Tc80
[8] = Inhibition of Staphylococcus aureus methionine aminopeptidase
[9] = biological target: T1, Fatty-acid amide hydrolase 1 (Homo sapiens, UniProt O00519); assay: Inhibition of human recombinant FAAH
T1 sequence (O00519 whole entry): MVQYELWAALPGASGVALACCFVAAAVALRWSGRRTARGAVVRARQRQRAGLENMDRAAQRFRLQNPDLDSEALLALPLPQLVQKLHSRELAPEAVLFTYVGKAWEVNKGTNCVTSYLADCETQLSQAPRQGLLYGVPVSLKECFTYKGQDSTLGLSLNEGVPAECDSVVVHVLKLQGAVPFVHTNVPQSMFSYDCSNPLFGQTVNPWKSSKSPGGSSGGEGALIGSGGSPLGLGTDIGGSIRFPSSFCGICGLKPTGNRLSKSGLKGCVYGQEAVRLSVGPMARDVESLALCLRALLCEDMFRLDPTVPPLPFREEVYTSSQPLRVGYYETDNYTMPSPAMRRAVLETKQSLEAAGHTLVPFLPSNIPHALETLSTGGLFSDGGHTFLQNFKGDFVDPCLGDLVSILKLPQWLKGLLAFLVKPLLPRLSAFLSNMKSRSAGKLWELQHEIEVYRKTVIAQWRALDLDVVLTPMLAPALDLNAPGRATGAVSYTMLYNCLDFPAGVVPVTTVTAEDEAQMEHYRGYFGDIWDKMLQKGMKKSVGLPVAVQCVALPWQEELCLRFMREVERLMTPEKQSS

[10] = Selectivity for rat FAAH over triacylglycerol hydrolase
[11] = tested on: Canis familiaris; assay: Antithrombotic activity in iv dosed dog areteriovenous shunt model assessed as inhibition of thrombus accumulation; assay type: functional; details: Canis lupus familiaris
[12] = tested on: Platelet; assay: Antithrombotic activity assessed as inhibition of alpha-thrombin-induced human platelet aggregation; assay type: functional, cell-based
[13] = Inhibition of HCV NS34A protease; parameters: species or system Hepacivirus hominis
[14] = Oral bioavailability in rat at 3 mg/kg; assay type: ADME, organism-based; details: in vivo
[15] = Tmax in rat at 3 mg/kg, po; assay type: ADME, organism-based; parameters: dose 3 mg/kg, route oral; details: in vivo
[16] = tested on: Hamster; assay: Efficacy in po dosed hamster acute lung injury model; assay type: functional; details: Cricetinae
[17] = biological target: Complement factor B (Homo sapiens, UniProt P00751); assay: Inhibition of C3 convertase
Sequence of Complement factor B (P00751 whole entry): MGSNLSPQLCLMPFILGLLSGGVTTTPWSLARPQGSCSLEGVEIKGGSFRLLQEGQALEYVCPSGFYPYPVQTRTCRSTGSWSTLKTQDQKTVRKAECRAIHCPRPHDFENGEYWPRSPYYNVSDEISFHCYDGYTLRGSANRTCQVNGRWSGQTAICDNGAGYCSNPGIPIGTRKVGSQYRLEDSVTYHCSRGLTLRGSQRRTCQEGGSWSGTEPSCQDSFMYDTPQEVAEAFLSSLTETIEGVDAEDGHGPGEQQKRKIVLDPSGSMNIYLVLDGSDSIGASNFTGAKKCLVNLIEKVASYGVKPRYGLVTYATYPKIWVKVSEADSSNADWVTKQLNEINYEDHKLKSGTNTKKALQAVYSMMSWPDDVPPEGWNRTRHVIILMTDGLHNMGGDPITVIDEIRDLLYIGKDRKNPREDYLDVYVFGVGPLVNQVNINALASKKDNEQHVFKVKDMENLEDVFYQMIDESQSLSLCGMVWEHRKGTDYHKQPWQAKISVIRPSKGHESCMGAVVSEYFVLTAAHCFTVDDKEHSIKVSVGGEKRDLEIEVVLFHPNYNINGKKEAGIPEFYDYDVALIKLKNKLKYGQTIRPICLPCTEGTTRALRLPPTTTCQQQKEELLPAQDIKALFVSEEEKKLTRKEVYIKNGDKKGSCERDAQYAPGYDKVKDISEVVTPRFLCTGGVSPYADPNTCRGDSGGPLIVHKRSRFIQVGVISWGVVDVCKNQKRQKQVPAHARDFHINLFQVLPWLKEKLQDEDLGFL

[18] = Selectivity for human neutrophil elastase over chymotrypsin
[19] = Selectivity for human neutrophil elastase over cathepsinn G
[20] = Selectivity for human neutrophil elastase over trypsin
[21] = Selectivity for human chymase over cathepsin G
[22] = Selectivity for human chymase over bovine chymotrypsin
[23] = Oral bioavailability in rat; assay type: ADME, organism-based; details: in vivo
[24] = biological target: Chymase (Homo sapiens, UniProt P23946)
Sequence of Chymase (P23946 whole entry): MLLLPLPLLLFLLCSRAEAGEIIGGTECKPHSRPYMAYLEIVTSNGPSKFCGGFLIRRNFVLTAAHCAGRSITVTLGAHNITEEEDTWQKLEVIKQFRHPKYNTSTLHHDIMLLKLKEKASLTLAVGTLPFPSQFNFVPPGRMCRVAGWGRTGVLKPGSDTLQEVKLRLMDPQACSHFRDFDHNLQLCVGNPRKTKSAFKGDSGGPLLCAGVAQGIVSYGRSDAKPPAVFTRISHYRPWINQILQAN

[25] = biological target: Coagulation factor X (Homo sapiens, UniProt P00742); assay: Inhibition of human factor 10a
Sequence of Coagulation factor X (P00742 41-179 limits assumed): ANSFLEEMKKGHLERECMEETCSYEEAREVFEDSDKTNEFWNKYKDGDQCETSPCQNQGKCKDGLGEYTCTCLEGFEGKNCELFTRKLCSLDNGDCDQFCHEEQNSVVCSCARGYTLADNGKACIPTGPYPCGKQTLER
Sequence of Coagulation factor X (P00742 235-488 limits assumed): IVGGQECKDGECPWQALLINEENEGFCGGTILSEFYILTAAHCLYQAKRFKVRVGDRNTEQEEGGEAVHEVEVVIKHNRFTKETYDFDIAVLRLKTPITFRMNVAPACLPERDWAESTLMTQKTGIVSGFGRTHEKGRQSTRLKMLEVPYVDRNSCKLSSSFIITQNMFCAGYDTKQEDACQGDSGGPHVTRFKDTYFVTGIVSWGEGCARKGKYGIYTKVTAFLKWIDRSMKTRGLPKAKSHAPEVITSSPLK

[26] = biological target: Plasma kallikrein (Homo sapiens, UniProt P03952); assay: Inhibition of kallikrein
Sequence of Plasma kallikrein (P03952 20-390 limits assumed): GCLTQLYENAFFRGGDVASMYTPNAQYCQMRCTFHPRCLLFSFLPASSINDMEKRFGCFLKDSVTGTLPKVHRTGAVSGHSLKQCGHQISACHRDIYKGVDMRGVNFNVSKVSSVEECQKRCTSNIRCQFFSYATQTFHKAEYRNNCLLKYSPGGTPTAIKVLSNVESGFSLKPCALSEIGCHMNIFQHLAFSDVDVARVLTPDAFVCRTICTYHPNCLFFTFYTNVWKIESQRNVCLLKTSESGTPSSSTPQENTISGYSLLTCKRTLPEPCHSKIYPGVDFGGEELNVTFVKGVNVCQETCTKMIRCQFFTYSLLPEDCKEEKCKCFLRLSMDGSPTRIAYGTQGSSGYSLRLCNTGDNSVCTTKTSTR
Sequence of Plasma kallikrein (P03952 391-638 limits assumed): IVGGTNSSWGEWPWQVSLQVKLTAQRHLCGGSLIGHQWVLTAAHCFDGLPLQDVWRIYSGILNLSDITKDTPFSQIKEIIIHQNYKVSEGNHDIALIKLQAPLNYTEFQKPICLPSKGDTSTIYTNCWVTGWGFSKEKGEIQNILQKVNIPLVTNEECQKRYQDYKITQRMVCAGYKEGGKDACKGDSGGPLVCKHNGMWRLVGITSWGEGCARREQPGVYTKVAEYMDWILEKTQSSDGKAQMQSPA

[27] = biological target: Plasminogen (Homo sapiens, UniProt P00747); assay: Inhibition of plasmin
Sequence of Plasminogen (P00747 97-580 limits assumed): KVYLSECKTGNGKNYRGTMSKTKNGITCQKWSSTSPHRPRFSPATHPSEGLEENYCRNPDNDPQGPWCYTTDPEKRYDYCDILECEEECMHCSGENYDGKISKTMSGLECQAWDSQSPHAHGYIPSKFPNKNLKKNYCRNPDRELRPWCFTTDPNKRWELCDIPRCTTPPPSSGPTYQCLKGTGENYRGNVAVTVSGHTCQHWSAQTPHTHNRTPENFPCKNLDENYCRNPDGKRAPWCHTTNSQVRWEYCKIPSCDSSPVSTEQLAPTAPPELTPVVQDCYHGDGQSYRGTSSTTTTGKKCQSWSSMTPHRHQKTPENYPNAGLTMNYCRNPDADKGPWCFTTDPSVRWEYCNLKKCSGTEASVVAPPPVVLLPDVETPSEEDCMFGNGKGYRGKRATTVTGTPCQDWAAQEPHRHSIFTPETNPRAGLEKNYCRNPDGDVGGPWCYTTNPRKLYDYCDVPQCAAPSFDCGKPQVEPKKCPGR
Sequence of Plasminogen (P00747 581-810 limits assumed): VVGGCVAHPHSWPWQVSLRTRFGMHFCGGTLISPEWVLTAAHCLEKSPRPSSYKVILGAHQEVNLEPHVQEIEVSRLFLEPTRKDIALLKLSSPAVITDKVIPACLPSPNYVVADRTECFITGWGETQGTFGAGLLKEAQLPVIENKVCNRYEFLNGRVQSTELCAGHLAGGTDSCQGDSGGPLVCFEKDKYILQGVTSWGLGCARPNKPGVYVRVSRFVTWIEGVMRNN

[28] = biological target: Tissue-type plasminogen activator (Homo sapiens, UniProt P00750); assay: Inhibition of tPA
Sequence of Tissue-type plasminogen activator (P00750 whole entry): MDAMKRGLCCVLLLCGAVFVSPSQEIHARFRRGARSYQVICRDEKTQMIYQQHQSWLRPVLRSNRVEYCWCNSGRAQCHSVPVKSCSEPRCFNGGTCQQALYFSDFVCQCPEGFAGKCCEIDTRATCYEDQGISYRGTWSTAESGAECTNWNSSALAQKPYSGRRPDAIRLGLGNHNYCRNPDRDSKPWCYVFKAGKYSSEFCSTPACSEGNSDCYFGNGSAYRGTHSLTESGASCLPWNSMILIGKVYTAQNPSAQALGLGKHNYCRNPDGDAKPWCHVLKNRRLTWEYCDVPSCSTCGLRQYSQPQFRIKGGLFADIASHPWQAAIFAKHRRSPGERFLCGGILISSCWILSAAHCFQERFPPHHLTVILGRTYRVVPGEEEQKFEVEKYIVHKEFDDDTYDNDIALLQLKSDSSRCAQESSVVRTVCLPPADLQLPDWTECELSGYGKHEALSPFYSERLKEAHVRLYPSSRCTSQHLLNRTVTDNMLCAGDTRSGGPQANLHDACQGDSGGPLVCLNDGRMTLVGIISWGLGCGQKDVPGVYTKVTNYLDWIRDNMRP

[29] = Inhibition of calpain 1 at 10 uM
[30] = biological target: Coagulation factor XII (Homo sapiens, UniProt P00748); assay: Inhibition of factor 12a
Sequence of Coagulation factor XII (P00748 20-372 limits assumed): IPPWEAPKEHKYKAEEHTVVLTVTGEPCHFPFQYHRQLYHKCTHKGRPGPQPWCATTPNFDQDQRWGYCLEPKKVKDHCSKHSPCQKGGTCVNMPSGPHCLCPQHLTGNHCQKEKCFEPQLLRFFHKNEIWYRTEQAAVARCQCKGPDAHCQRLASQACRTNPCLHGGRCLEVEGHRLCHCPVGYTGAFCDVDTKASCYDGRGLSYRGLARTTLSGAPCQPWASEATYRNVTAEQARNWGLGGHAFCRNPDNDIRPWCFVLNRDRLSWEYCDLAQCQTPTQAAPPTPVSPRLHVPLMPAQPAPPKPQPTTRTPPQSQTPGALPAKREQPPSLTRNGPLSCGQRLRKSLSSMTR
Sequence of Coagulation factor XII (P00748 373-615 limits assumed): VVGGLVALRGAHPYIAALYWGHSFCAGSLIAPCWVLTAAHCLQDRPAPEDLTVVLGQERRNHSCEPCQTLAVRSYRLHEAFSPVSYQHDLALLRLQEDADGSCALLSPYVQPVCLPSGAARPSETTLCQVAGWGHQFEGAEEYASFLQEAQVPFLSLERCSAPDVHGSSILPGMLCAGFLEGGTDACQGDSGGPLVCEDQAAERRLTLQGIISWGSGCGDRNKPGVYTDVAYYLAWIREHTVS

Compound: CC(=O)N1C[C@H](O)C[C@H]1C(=O)N[C@@H](CCCN=C(N)N)C(=O)c1nc2ccccc2s1
Selectivity ratio [1]: 30
Selectivity ratio [2]: 200
Selectivity ratio [3]: > 500
Ki [4]: 10 nM
Selectivity ratio [5]: > 500
Selectivity ratio [6]: > 500

Compound: CC(C)C[C@H](NC(=O)OCc1ccccc1)C(=O)NCC(=O)N1CCC[C@H]1C(=O)c1nc2ccccc2s1
IC50 [7]: 200 nM

Compound: CSCCC(N)C(=O)c1nccs1 (racemic)
IC50 [8]: 19000 nM

Compound: CCCCCCCC/C=C\CCCCCCCC(=O)c1nc2ncccc2o1
Ki [9]: 13 nM
Selectivity ratio [10]: 30

Compound: CC(C)C(NC(=O)Cn1c(-c2ccccc2)ncc(N)c1=O)C(=O)c1nnc(C(C)(C)C)o1 (racemic)
bioavailability [14]: 50%
Tmax [15]: 36 min
ED50 [16]: 5.1 mg/kg

Compound: Cc1cccc(Cc2nnc(C(=O)[C@@H](NC(=O)[C@@H]3CCCN3C(=O)[C@@H](NC(=O)OCc3ccccc3)C(C)C)C(C)C)o2)c1
Selectivity ratio [18]: > 1000
Selectivity ratio [19]: > 1000
Selectivity ratio [20]: > 1000

Compound: CSCCC(N)C(=O)c1ccccn1 (racemic)
IC50 [8]: 16000 nM

Compound: NC(N)=NCCC[C@H](NC(=O)CNC(=O)[C@@H](CCCN=C(N)N)NS(=O)(=O)CCc1ccccc1)C(=O)c1nc2ccccc2o1
IC50 [25]: 2 nM
IC50 [26]: 13 nM
IC50 [27]: 36 nM
IC50 [28]: 29 nM

Compound: CC(C)C[C@H](NC(=O)OC(C)(C)C)C(=O)N[C@@H](CC(C)C)C(=O)c1ncc[nH]1
inhibition [29]: 77%

Further lines, with some results ahead:

IC50 [12]: 30 nM
Compound: CN[C@H](Cc1ccccc1)C(=O)N1CCC[C@H]1C(=O)N[C@@H](CCCNC(=N)N)C(=O)c1nc2ccc(C(=O)O)cc2s1
ED50 [11]: 0.1 mg/kg

Ki [13]: 35000 nM
Compound: CC[C@H](NC(=O)[C@@H]1C[C@@H](OCc2ccccc2)CN1C(=O)[C@@H](NC(=O)[C@@H](NC(=O)c1cnccn1)C(C)C)C(C)C)C(=O)c1nnc(-c2ccccc2)o1

IC50 [17]: 3400 nM
Compound: CC[C@H](C)[C@H](N)C(=O)N[C@H]1CSSC[C@@H](C(=O)N[C@H](C(N)=O)[C@@H](C)O)NC(=O)[C@H](CCCN=C(N)N)NC(=O)[C@H](Cc2cnc[nH]2)NC(=O)[C@H](Cc2cnc[nH]2)NC(=O)CNC(=O)[C@H](Cc2c[nH]c3ccccc23)NC(=O)[C@H](CC(=O)O)NC(=O)[C@H](CCC(N)=O)NC(=O)[C@H](C(C)C)NC(=O)[C@H](C(C)C)NC1=O [COMPSTATIN]

Selectivity ratio [21]: 80
Selectivity ratio [22]: 200
bioavailability [23]: 20%
Ki [24]: 4.8 nM
Compound: COC(=O)c1ccc2oc(C(=O)[C@H](Cc3ccccc3)NC(=O)Cn3c(-c4cccc(OC)c4)ncc(N)c3=O)nc2c1

Ki [24]: 23 nM
Compound: COC(=O)c1ccc2oc(C(=O)[C@H](Cc3ccccc3)NC(=O)Cn3c(-c4ccc(F)cc4)ncc(N)c3=O)nc2c1

IC50 [26]: 14 nM
IC50 [30]: 50 nM
Compound: NC(N)=NCCC[C@H](NC(=O)CNC(=O)[C@@H](CCCN=C(N)N)NS(=O)(=O)Cc1ccccc1)C(=O)c1nccs1
